What was measured:
[1] = Volume of distribution at steady state in rat at 4 mg/kg, iv; assay type: ADME, organism-based; design: dose 4 mg/kg, route intravenous; settings: in vivo, read-out: Vdss
Dipeptidyl peptidase 8 = Dipeptidyl peptidase 8 (Homo sapiens, UniProt Q6V1X1); test: Inhibition of human recombinant DPP8 pre-incubated with compound for 15 mins before substrate addition by luminescence assay
[2] = Half life in rat at 4 mg/kg, iv; assay type: ADME, organism-based; design: dose 4 mg/kg, route intravenous; settings: in vivo
[3] = Cmax in rat at 8 mg/kg, po; assay type: ADME, organism-based; design: dose 8 mg/kg, route oral; settings: in vivo
[4] = Oral bioavailability in rat at 8 mg/kg; assay type: ADME, organism-based; settings: in vivo
[5] = AUClast in rat at 8 mg/kg, po; assay type: ADME, organism-based; design: time 0 - last, dose 8 mg/kg, route oral; settings: plasma
Dipeptidyl peptidase 9 = Dipeptidyl peptidase 9 (Homo sapiens, UniProt Q86TI2); test: Inhibition of human recombinant DPP9 pre-incubated with compound for 15 mins before substrate addition by luminescence assay
Sequence of Dipeptidyl peptidase 9 (Q86TI2 whole entry): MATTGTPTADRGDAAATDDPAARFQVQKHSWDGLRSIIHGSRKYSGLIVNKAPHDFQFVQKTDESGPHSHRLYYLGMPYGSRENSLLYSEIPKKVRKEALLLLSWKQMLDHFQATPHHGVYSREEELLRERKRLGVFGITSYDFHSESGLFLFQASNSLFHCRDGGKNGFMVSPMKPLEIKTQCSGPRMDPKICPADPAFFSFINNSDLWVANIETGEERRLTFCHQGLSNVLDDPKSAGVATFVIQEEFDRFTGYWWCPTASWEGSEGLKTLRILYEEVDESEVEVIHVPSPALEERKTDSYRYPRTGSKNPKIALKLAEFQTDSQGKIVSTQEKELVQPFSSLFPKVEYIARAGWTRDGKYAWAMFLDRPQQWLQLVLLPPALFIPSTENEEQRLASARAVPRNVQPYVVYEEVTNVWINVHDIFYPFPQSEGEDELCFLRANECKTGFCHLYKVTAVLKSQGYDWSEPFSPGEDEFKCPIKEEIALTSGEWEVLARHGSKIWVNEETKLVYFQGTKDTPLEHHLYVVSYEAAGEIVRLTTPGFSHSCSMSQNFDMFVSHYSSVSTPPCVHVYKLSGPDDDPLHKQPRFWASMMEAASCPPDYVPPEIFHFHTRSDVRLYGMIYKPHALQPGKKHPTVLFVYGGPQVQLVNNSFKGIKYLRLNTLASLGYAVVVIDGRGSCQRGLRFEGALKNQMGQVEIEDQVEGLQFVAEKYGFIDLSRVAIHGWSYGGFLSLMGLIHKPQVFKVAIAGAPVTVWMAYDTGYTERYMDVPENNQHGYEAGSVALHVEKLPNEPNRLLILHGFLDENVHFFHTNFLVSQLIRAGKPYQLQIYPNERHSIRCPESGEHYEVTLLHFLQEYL

[6] = Clearance in rat at 4 mg/kg, iv; assay type: ADME, organism-based; design: dose 4 mg/kg, route intravenous; settings: in vivo
[7] = Half life in rat at 8 mg/kg, po; assay type: ADME, organism-based; design: dose 8 mg/kg, route oral; settings: in vivo

Sequence of Dipeptidyl peptidase 8 (Q6V1X1 whole entry): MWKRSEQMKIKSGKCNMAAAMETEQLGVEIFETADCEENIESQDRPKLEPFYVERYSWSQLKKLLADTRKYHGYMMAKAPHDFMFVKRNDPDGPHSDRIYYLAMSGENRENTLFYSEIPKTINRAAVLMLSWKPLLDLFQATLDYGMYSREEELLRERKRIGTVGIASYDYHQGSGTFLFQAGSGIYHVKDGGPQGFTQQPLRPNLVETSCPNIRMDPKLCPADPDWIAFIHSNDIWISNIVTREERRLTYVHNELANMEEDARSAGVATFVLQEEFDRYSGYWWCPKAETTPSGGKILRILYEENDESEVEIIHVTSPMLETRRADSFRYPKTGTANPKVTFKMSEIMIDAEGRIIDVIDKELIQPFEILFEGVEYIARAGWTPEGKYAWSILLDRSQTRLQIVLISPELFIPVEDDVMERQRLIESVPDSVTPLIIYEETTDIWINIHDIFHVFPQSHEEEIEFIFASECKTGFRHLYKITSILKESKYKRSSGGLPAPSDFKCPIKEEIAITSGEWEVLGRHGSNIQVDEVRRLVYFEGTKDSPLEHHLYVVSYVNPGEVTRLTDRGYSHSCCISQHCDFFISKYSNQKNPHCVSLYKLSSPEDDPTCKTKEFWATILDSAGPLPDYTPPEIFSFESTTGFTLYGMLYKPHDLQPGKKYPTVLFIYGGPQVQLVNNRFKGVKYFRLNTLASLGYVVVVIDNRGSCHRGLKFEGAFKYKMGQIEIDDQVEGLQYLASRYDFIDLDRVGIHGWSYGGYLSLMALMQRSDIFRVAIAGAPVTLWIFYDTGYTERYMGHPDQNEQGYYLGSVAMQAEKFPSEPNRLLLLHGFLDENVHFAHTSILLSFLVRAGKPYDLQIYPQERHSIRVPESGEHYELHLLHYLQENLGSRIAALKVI

- Vd [1]: 2.78 L/kg
- IC50 (Dipeptidyl peptidase 8): > 100 µM
- half-life [2]: 0.8 h
- Cmax [3]: 86 ng/mL
- bioavailability [4]: 12%
- AUC(0-t) [5]: 249 ng·h/mL
- IC50 (Dipeptidyl peptidase 9): > 100 µM
- clearance [6]: 61.2 mL/min/kg
- half-life [7]: 1.5 h
SMILES: Cn1c(=O)n(Cc2ccccc2C#N)c2c(N3CCC[C@@H](N)C3)ncnc21

From ChEMBL document CHEMBL3351303, “Discovery of Imigliptin, a Novel Selective DPP-4 Inhibitor for the Treatment of Type 2 Diabetes” (ACS Med Chem Lett, 2014)
